According to PubChem BioAssay (NCI):
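Tested at 5 concentrations; 48 h exposure; 96-well plates; endpoints linearly interpolated, else capped at highest concentration. The concentration for full growth arrest is given as TGI.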

Tests used:
Assay in all cases: DTP human tumour cell line panel, 48 h
ACHN renal = test system: ACHN renal
OVCAR-8 ovarian = test system: OVCAR-8 ovarian
RXF 393 renal = test system: RXF 393 renal
NCI-H522 lung = test system: NCI-H522 lung
KM12 colon = test system: KM12 colon
SF-539 CNS = test system: SF-539 CNS
K-562 leukemia = test system: K-562 leukemia
A549 NSCLC = test system: A549 NSCLC
BT-549 breast = test system: BT-549 breast
SN12C renal = test system: SN12C renal
NCI-H23 lung = test system: NCI-H23 lung
T-47D breast = test system: T-47D breast
COLO 205 colon = test system: COLO 205 colon
M14 melanoma = test system: M14 melanoma
MOLT-4 leukemia = test system: MOLT-4 leukemia
786-0 renal = test system: 786-0 renal
UACC-257 melanoma = test system: UACC-257 melanoma
TK-10 renal = test system: TK-10 renal
SK-MEL-2 melanoma = test system: SK-MEL-2 melanoma
U251 CNS = test system: U251 CNS
CCRF-CEM leukemia = test system: CCRF-CEM leukemia
SF-295 CNS = test system: SF-295 CNS
MDA-MB-231 breast = test system: MDA-MB-231 breast
HL-60(TB) leukemia = test system: HL-60(TB) leukemia
HCC-2998 colon = test system: HCC-2998 colon
IGROV1 ovarian = test system: IGROV1 ovarian
MDA-MB-435 = test system: MDA-MB-435
NCI-H460 lung = test system: NCI-H460 lung
MCF7 breast = test system: MCF7 breast
SW-620 colon = test system: SW-620 colon
SF-268 CNS = test system: SF-268 CNS
RPMI-8226 leukemia = test system: RPMI-8226 leukemia
MDA-N = test system: MDA-N
OVCAR-3 ovarian = test system: OVCAR-3 ovarian
MALME-3M melanoma = test system: MALME-3M melanoma
NCI/ADR-RES ovarian = test system: NCI/ADR-RES ovarian
SK-MEL-5 melanoma = test system: SK-MEL-5 melanoma
UO-31 renal = test system: UO-31 renal
HS 578T breast = test system: HS 578T breast
OVCAR-5 ovarian = test system: OVCAR-5 ovarian
OVCAR-4 ovarian = test system: OVCAR-4 ovarian
A498 renal = test system: A498 renal
SK-MEL-28 melanoma = test system: SK-MEL-28 melanoma
NCI-H226 lung = test system: NCI-H226 lung
HOP-62 NSCLC = test system: HOP-62 NSCLC
LOX IMVI melanoma = test system: LOX IMVI melanoma
HT29 colon = test system: HT29 colon
HCT-116 colon = test system: HCT-116 colon
DU-145 prostate = test system: DU-145 prostate
SNB-19 CNS = test system: SNB-19 CNS
EKVX NSCLC = test system: EKVX NSCLC
HCT-15 colon = test system: HCT-15 colon
PC-3 prostate = test system: PC-3 prostate
HOP-92 NSCLC = test system: HOP-92 NSCLC
CAKI-1 renal = test system: CAKI-1 renal
SK-OV-3 ovarian = test system: SK-OV-3 ovarian
UACC-62 melanoma = test system: UACC-62 melanoma
SNB-75 CNS = test system: SNB-75 CNS
SR leukemia = test system: SR leukemia

CC(C)C(=O)Nc1cc(C(F)(F)F)ccc1[N+](=O)[O-]
TGI (ACHN renal): > 100 µM
TGI (OVCAR-8 ovarian): > 100 µM
TGI (RXF 393 renal): > 100 µM
TGI (NCI-H522 lung): > 100 µM
TGI (KM12 colon): > 100 µM
TGI (SF-539 CNS): > 100 µM
TGI (K-562 leukemia): > 100 µM
TGI (A549 NSCLC): > 100 µM
TGI (BT-549 breast): > 100 µM
TGI (SN12C renal): > 100 µM
TGI (NCI-H23 lung): > 100 µM
TGI (T-47D breast): > 100 µM
TGI (COLO 205 colon): > 100 µM
TGI (M14 melanoma): > 100 µM
TGI (MOLT-4 leukemia): > 100 µM
TGI (786-0 renal): > 100 µM
TGI (UACC-257 melanoma): > 100 µM
TGI (TK-10 renal): > 100 µM
TGI (SK-MEL-2 melanoma): > 100 µM
TGI (U251 CNS): > 100 µM
TGI (CCRF-CEM leukemia): > 100 µM
TGI (SF-295 CNS): > 100 µM
TGI (MDA-MB-231 breast): > 100 µM
TGI (HL-60(TB) leukemia): > 100 µM
TGI (HCC-2998 colon): > 100 µM
TGI (IGROV1 ovarian): > 100 µM
TGI (MDA-MB-435): > 100 µM
TGI (NCI-H460 lung): > 100 µM
TGI (MCF7 breast): > 100 µM
TGI (SW-620 colon): > 100 µM
TGI (SF-268 CNS): > 100 µM
TGI (RPMI-8226 leukemia): > 100 µM
TGI (MDA-N): > 100 µM
TGI (OVCAR-3 ovarian): > 100 µM
TGI (MALME-3M melanoma): > 100 µM
TGI (NCI/ADR-RES ovarian): > 100 µM
TGI (SK-MEL-5 melanoma): > 100 µM
TGI (UO-31 renal): > 100 µM
TGI (HS 578T breast): > 100 µM
TGI (OVCAR-5 ovarian): > 100 µM
TGI (OVCAR-4 ovarian): > 100 µM
TGI (A498 renal): > 100 µM
TGI (SK-MEL-28 melanoma): > 100 µM
TGI (NCI-H226 lung): > 100 µM
TGI (HOP-62 NSCLC): > 100 µM
TGI (LOX IMVI melanoma): > 100 µM
TGI (HT29 colon): > 100 µM
TGI (HCT-116 colon): > 100 µM
TGI (DU-145 prostate): > 100 µM
TGI (SNB-19 CNS): > 100 µM
TGI (EKVX NSCLC): > 100 µM
TGI (HCT-15 colon): > 100 µM
TGI (PC-3 prostate): > 100 µM
TGI (HOP-92 NSCLC): > 100 µM
TGI (CAKI-1 renal): > 100 µM
TGI (SK-OV-3 ovarian): > 100 µM
TGI (UACC-62 melanoma): > 100 µM

Cc1cccc2c1c(=O)c1c(O)c3c(cc1n2C)OC(C)(C)C=C3
TGI (ACHN renal): > 10 µM
TGI (OVCAR-8 ovarian): > 10 µM
TGI (RXF 393 renal): > 10 µM
TGI (NCI-H522 lung): > 10 µM
TGI (KM12 colon): > 10 µM
TGI (SF-539 CNS): > 10 µM
TGI (K-562 leukemia): > 10 µM
TGI (A549 NSCLC): > 10 µM
TGI (BT-549 breast): > 10 µM
TGI (SN12C renal): > 10 µM
TGI (NCI-H23 lung): > 10 µM
TGI (T-47D breast): > 10 µM
TGI (COLO 205 colon): > 10 µM
TGI (M14 melanoma): > 10 µM
TGI (MOLT-4 leukemia): > 10 µM
TGI (786-0 renal): > 10 µM
TGI (UACC-257 melanoma): > 10 µM
TGI (TK-10 renal): > 10 µM
TGI (SK-MEL-2 melanoma): > 10 µM
TGI (U251 CNS): > 10 µM
TGI (CCRF-CEM leukemia): > 10 µM
TGI (SF-295 CNS): > 10 µM
TGI (MDA-MB-231 breast): > 10 µM
TGI (HL-60(TB) leukemia): > 10 µM
TGI (HCC-2998 colon): > 10 µM
TGI (IGROV1 ovarian): > 10 µM
TGI (MDA-MB-435): > 10 µM
TGI (NCI-H460 lung): > 10 µM
TGI (MCF7 breast): > 10 µM
TGI (SW-620 colon): > 10 µM
TGI (SF-268 CNS): > 10 µM
TGI (RPMI-8226 leukemia): > 10 µM
TGI (SNB-75 CNS): > 10 µM
TGI (MDA-N): > 10 µM
TGI (OVCAR-3 ovarian): > 10 µM
TGI (SR leukemia): > 10 µM
TGI (MALME-3M melanoma): > 10 µM
TGI (NCI/ADR-RES ovarian): > 10 µM
TGI (SK-MEL-5 melanoma): > 10 µM
TGI (HS 578T breast): > 10 µM
TGI (OVCAR-5 ovarian): > 10 µM
TGI (OVCAR-4 ovarian): > 10 µM
TGI (A498 renal): > 10 µM
TGI (SK-MEL-28 melanoma): > 10 µM
TGI (NCI-H226 lung): > 10 µM
TGI (HOP-62 NSCLC): > 10 µM
TGI (LOX IMVI melanoma): > 10 µM
TGI (HT29 colon): > 10 µM
TGI (HCT-116 colon): > 10 µM
TGI (DU-145 prostate): > 10 µM
TGI (SNB-19 CNS): > 10 µM
TGI (EKVX NSCLC): > 10 µM
TGI (HCT-15 colon): > 10 µM
TGI (PC-3 prostate): > 10 µM
TGI (CAKI-1 renal): > 10 µM
TGI (SK-OV-3 ovarian): > 10 µM
TGI (UACC-62 melanoma): > 10 µM

CC(C)[C@H](NC(=O)[C@H](N)Cc1ccc(N(CCCl)CCCl)cc1)C(=O)O
TGI (ACHN renal): > 100 µM
TGI (OVCAR-8 ovarian): > 100 µM
TGI (RXF 393 renal): > 100 µM
TGI (NCI-H522 lung): > 100 µM
TGI (KM12 colon): > 100 µM
TGI (K-562 leukemia): > 100 µM
TGI (A549 NSCLC): > 100 µM
TGI (BT-549 breast): > 100 µM
TGI (SN12C renal): > 100 µM
TGI (NCI-H23 lung): > 100 µM
TGI (T-47D breast): > 100 µM
TGI (COLO 205 colon): > 100 µM
TGI (M14 melanoma): > 100 µM
TGI (MOLT-4 leukemia): > 100 µM
TGI (786-0 renal): > 100 µM
TGI (UACC-257 melanoma): > 100 µM
TGI (TK-10 renal): > 100 µM
TGI (SK-MEL-2 melanoma): > 100 µM
TGI (U251 CNS): > 100 µM
TGI (CCRF-CEM leukemia): > 100 µM
TGI (SF-295 CNS): > 100 µM
TGI (MDA-MB-231 breast): > 100 µM
TGI (HL-60(TB) leukemia): > 100 µM
TGI (HCC-2998 colon): > 100 µM
TGI (IGROV1 ovarian): > 100 µM
TGI (MDA-MB-435): > 100 µM
TGI (NCI-H460 lung): > 100 µM
TGI (MCF7 breast): > 100 µM
TGI (SW-620 colon): > 100 µM
TGI (SF-268 CNS): > 100 µM
TGI (RPMI-8226 leukemia): > 100 µM
TGI (SNB-75 CNS): > 100 µM
TGI (MDA-N): > 100 µM
TGI (OVCAR-3 ovarian): > 100 µM
TGI (MALME-3M melanoma): > 100 µM
TGI (NCI/ADR-RES ovarian): > 100 µM
TGI (SK-MEL-5 melanoma): > 100 µM
TGI (UO-31 renal): > 100 µM
TGI (HS 578T breast): > 100 µM
TGI (OVCAR-5 ovarian): > 100 µM
TGI (OVCAR-4 ovarian): > 100 µM
TGI (A498 renal): > 100 µM
TGI (SK-MEL-28 melanoma): > 100 µM
TGI (NCI-H226 lung): > 100 µM
TGI (HOP-62 NSCLC): > 100 µM
TGI (LOX IMVI melanoma): > 100 µM
TGI (HT29 colon): > 100 µM
TGI (HCT-116 colon): > 100 µM
TGI (DU-145 prostate): > 100 µM
TGI (SNB-19 CNS): > 100 µM
TGI (EKVX NSCLC): > 100 µM
TGI (HCT-15 colon): > 100 µM
TGI (PC-3 prostate): > 100 µM
TGI (HOP-92 NSCLC): > 100 µM
TGI (CAKI-1 renal): > 100 µM
TGI (SK-OV-3 ovarian): > 100 µM
TGI (UACC-62 melanoma): > 100 µM
